The values that follow come from patent US20110301122A1, “HETEROAROMATIC COMPOUNDS FOR USE AS HIF INHIBITORS” (BAYER SCHERING PHARMA AKTIENGESELLSCHAFT, priority 2008, published 2011).

The assay has as its system luciferase reporter under the control of an HIF-responsive sequence in HCT 116 cells. Nature of the assay: HIF-luciferase assay. The class given is cell-based. As to conditions: Homo sapiens; HCT 116 cells stably transfected with HIF-responsive luciferase reporter; hypoxia chamber (1% O2), 24 h; luminescence (Bright Glo). How it is done: HCT 116 cells were transfected in a stable manner with a plasmid which contained a luciferase reporter under the control of an HIF-responsive sequence. These cells were sown in microtitre plates [20,000 cells/cavity in RPMI 1640 medium with 10% foetal calf serum (FCS) and 100 μg/ml of hygromycin]. Incubation was carried out overnight under standard conditions (5% CO2, 21% O2, 37° C., moistened). The following morning the cells were incubated with various concentrations of the test substances (0-10 μmol/l) in a hypoxia chamber (1% O2). After 24 h, Bright Glo reagent (Promega, Wisconsin, USA) was added in accordance with the manufacturer'/s instructions, and after 5 min the luminescence was measured. Cells which were incubated under normoxia served as background controls.
(In general: A reporter such as luciferase makes a cellular process visible.)
Take `CN=S(=O)(c1ccc(-c2noc(-c3cc(C)n(Cc4ccc(NC)nc4)n3)n2)cc1)C(F)(F)F` (racemic) [Example 187, N-Methyl-5-{[5-methyl-3-(3-{4-[N-methyl-S-(trifluoromethyl)sulphonimidoyl]phenyl}-1,2,4-oxa-diazol-5-yl)-1H-pyrazol-1-yl]methyl}pyridin-2-amine]: the IC50 is 0.6 nM. Then `CNc1ccc(Cn2nc(-c3nc(-c4ccc(S(=N)(=O)C(F)(F)F)cc4)no3)cc2C)cn1` (racemic) [Example 188, N-Methyl-5-{[5-methyl-3-(3-{4-[S-(trifluoromethyl)sulphonimidoyl]phenyl}-1,2,4-oxadiazol-5-yl)-1H-pyrazol-1-yl]methyl}pyridin-2-amine], with 1 nM.

The compound `CNc1ccc(Cn2nc(-c3nc(-c4ccc(OC(F)(F)F)cc4)no3)cc2C)cn1` [Example 24, N-Methyl-5-[(5-methyl-3-{3-[4-(trifluoromethoxy)phenyl]-1,2,4-oxadiazol-5-yl}-1H-pyrazol-1-yl)methyl]pyridin-2-amine] registered an IC50 of 1 nM.

As to `Cc1cc(-c2nc(-c3ccc(OC(F)(F)F)cc3)no2)nn1Cc1ccc(NCCCO)nc1` [Example 25], half-maximal inhibition (IC50) required 8 nM. `Cc1cc(-c2nc(-c3ccc(OC(F)(F)F)cc3)no2)nn1Cc1ccc(NCCO)nc1` [Example 29]: half-maximal inhibition (IC50) was put at 10 nM. Then `Cc1cc(-c2nc(-c3ccc(OC(F)(F)F)cc3)no2)nn1Cc1ccnc(N(CCO)CCO)c1` [Example 33], with 30 nM; and `Cc1cc(-c2nc(-c3ccc(C(C)(C)C)cc3)no2)cn1Cc1ccc(Cl)nc1` [Example 72, 5-({4-[3-(4-tert-Butylphenyl)-1,2,4-oxadiazol-5-yl]-2-methyl-1H-pyrrol-1-yl}methyl)-2-chloro-pyridine], with 10 nM; and `Cc1ccc(Cn2cc(-c3nc(-c4ccc(S(=O)(=O)C(F)(F)F)cc4)no3)cc2C)cc1` [Example 79], with 4 nM.

For the compound `Cc1ccc(Cn2cc(-c3nc(-c4ccc(C5(F)COC5)cc4)no3)cc2C)cc1` [Example 81], the IC50 came out at 10 nM. `Cc1ccc(Cc2cc(-c3nc(-c4ccc(C(C)(C)C)cc4)no3)nn2C)cc1` [Example 94] came in with an IC50 of 20 nM. `Cc1cc(-c2nc(-c3ccc(OC(F)(F)F)cc3)no2)cn1Cc1ccc(NCCO)nc1` [Example 100, 2-({5-[(2-Methyl-4-{3-[4-(trifluoromethoxy)phenyl]-1,2,4-oxadiazol-5-yl}-1H-pyrrol-1-yl)-methyl]pyridin-2-yl}amino)ethanol] gave an IC50 of 9 nM.

The compound `CNc1ccc(Cn2nc(-c3nc(-c4ccc(C(C)(C)C(F)(F)F)cc4)no3)cc2C)cn1` [Example 121] showed an IC50 of 0.4 nM.

On to `CNc1ccc(Cn2nc(-c3nc(-c4ccc(C5(F)CCC5)cc4)no3)cc2C)cn1` [Example 133], for which half-maximal inhibition (IC50) required 1.5 nM. Next, `CNc1ccc(Cn2nc(-c3nc(-c4ccc(C5(OC)CCC5)cc4)no3)cc2C)cn1` [Example 134]: 2 nM. Compound `Cc1cc(-c2nc(-c3ccc(OC(F)(F)F)cc3)no2)nn1Cc1ccc(N)nc1` [Example 135, 5-[(5-Methyl-3-{3-[4-(trifluoromethoxy)phenyl]-1,2,4-oxadiazol-5-yl}-1H-pyrazol-1-yl)methyl]-pyridin-2-amine] yielded an IC50 of 4 nM.

In turn, `CNc1ccc(Cn2nc(-c3nc(-c4ccc(C5CCOCC5)cc4)no3)cc2C)cn1` [Example 166, N-Methyl-5-[(5-methyl-3-{3-[4-(tetrahydro-2H-pyran-4-yl)phenyl]-1,2,4-oxadiazol-5-yl}-1H-pyrazol-1-yl)methyl]pyridin-2-amine] came in with an IC50 of 2 nM. Then `CNc1ccc(Cn2nc(-c3nc(-c4ccc(C(C)(C)C)cc4)no3)cc2C)cn1` [Example 170, 5-({3-[3-(4-tert-Butylphenyl)-1,2,4-oxadiazol-5-yl]-5-methyl-1H-pyrazol-1-yl}methyl)-N-methyl-pyridin-2-amine], with 0.3 nM; and `CNc1ccc(Cn2nc(-c3nc(-c4ccc(C5(COC)CCC5)cc4)no3)cc2C)cn1` [Example 171, 5-{[3-(3-{4-[1-(Methoxymethyl)cyclobutyl]phenyl}-1,2,4-oxadiazol-5-yl)-5-methyl-1H-pyrazol-1-yl]methyl}-N-methylpyridin-2-amine], with 0.4 nM; and `CNc1ccc(Cn2nc(-c3nc(-c4ccc([Si](C)(C)C)cc4)no3)cc2C)cn1` [Example 178, N-Methyl-5-[(5-methyl-3-{3-[4-(trimethylsilyl)phenyl]-1,2,4-oxadiazol-5-yl}-1H-pyrazol-1-yl)-methyl]pyridin-2-amine], with 0.6 nM. `CCNc1ccc(Cn2nc(-c3nc(-c4ccc([Si](C)(C)C)cc4)no3)cc2C)cn1` [Example 180, N-Ethyl-5-[(5-methyl-3-{3-[4-(trimethylsilyl)phenyl]-1,2,4-oxadiazol-5-yl}-1H-pyrazol-1-yl)-methyl]pyridin-2-amine] came in with an IC50 of 1 nM. Then `CNc1ccc(Cn2nc(-c3nc(-c4ccc(OC(F)(F)F)c(Cl)c4)no3)cc2C)cn1` [Example 181, 5-[(3-{3-[3-Chloro-4-(trifluoromethoxy)phenyl]-1,2,4-oxadiazol-5-yl}-5-methyl-1H-pyrazol-1-yl)-methyl]-N-methylpyridin-2-amine], with 2 nM; and `CNc1ccc(Cn2nc(-c3nc(-c4ccc(OC(F)(F)F)c(F)c4)no3)cc2C)cn1` [Example 182, 5-[(3-{3-[3-Fluoro-4-(trifluoromethoxy)phenyl]-1,2,4-oxadiazol-5-yl}-5-methyl-1H-pyrazol-1-yl)-methyl]-N-methylpyridin-2-amine], with 2 nM. Then `CNc1ccc(Cn2nc(-c3nc(-c4ccc(C5(C(F)(F)F)CC5)cc4)no3)cc2C)cn1` [Example 183, N-Methyl-5-{[5-methyl-3-(3-{4-[1-(trifluoromethyl)cyclopropyl]phenyl}-1,2,4-oxadiazol-5-yl)-1H-pyrazol-1-yl]methyl}pyridin-2-amine], with 0.6 nM. With `CNc1ccc(Cn2nc(-c3nc(-c4ccc(CN(C(C)C)C(C)C)cc4)no3)cc2C)cn1` [Example 184, 5-{[3-(3-{4-[(Diisopropylamino)methyl]phenyl}-1,2,4-oxadiazol-5-yl)-5-methyl-1H-pyrazol-1-yl]-methyl}-N-methylpyridin-2-amine], 2 nM corresponded to half-maximal inhibition (IC50). For `CNc1ccc(Cn2cc(-c3nc(-c4ccc(C(C)(C)C(F)(F)F)cc4)no3)cc2C)cn1` [Example 196, N-Methyl-5-[(2-methyl-4-{3-[4-(1,1,1-trifluoro-2-methylpropan-2-yl)phenyl]-1,2,4-oxadiazol-5-yl}-1H-pyrrol-1-yl)methyl]pyridin-2-amine], half-maximal inhibition (IC50) required 0.5 nM.

One may read the IC50 as the midpoint of a concentration-inhibition curve. Read a high IC50 as weaker potency.
